In patent US9868763B2, “Modulators of protease activated receptors” (The University of Queensland, priority 2011, dated 2018):
“Also recorded” adds a separate entry of the source.

Tests used:
Assay type in all cases: in vivo, Wistar rat
[1] = test system: HCHF diet-induced obese rats; experiment: Diet-induced obesity and metabolic syndrome, high carbohydrate high fat (HCHF) fed rats
Description: Selective PAR2 antagonist 52 was used to evaluate the therapeutic potential of PAR2 antagonism in regulating adiposity, adipose tissue inflammation and metabolic function in rats fed a diet high in carbohydrates and fats (HCHF). Weekly body weight measurements (0-16 weeks) were recorded for Corn Starch CS (●) and High Carbohydrate High Fat (HCHF) (∘)-fed rats (FIG. 13A), as well as for HCHF (∘) and HCHF+PAR2 antagonist 52 (▴)-treated rats (FIG. 13B). In addition, weekly waist circumference measurements were recorded for CS (●), HCHF (∘), HCHF+PAR2 antagonist 52 (▴)-treated rats (FIG. 13 C). FIG. 13 D illustrates […] body composition measurements in CS (▪), HCHF ( ? ), HCHF+PAR2 antagonist 52 (□)-treated rats.
Relative to rats fed a lean diet containing only corn starch (CS), those receiving the HCHF diet for 16 weeks become obese, gaining 54±4% body weight and 206±43% total fat mass, particularly visceral (abdominal) fat from week 0 to 16 (FIGS. 13A-G). FIG. 13F is an image of the abdominal fat pad at 16 weeks in rat given HCHF diet for 16 weeks, but no treatment. […] The increase in PAR2 expression in adipose tissue (FIG. 14A) and its two component fractions, adipocytes and stromal vascular cell (SVC) fractions (FIG. 14B), were all elevated by HCHF feeding, positively correlating with increased adiposity. Local adipose tissue inflammation was also elevated by HCHF feeding (FIG. 15A-F). Findings indicate that a different endogenous signal—saturated fatty acids such as palmitic acid consumed in a HCHF diet—can prime macrophages to increase their expression of PAR2.
The regulation of metabolic parameters by PAR2 antagonist 52 were measured in diet-induced obese rats including systolic blood pressure measurements in CS (●), HCHF (∘) and HCHF+52 (▴)-treated rats (FIG. 16 A), oral glucose tolerance in CS (●), HCHF (∘) and HCHF+PAR2 antagonist 52 (▴)-treated rats (FIG. 16 B), insulin tolerance in CS (●), HCHF (∘), HCHF+PAR2 antagonist 52 (▴)-treated rats (FIG. 16 C), plasma lipid concentrations in CS, HCHF and HCHF+PAR2 antagonist 52-treated rats (FIG. 16 D and plasma liver enzymes in CS, HCHF and HCHF+52-treated rats (FIG. 16 E, *P<0.05 vs CS; **P<0.05 vs HCHF).
FIGS. 17A-C show representative images (20× magnification) of hepatocyte ultrastructure and fat deposition in CS (A), HCHF (B) and HCHF+PAR2 antagonist 52 (C)-treated rats. […] FIG. 17E illustrates metabolic genes in rat liver of different groups. […] Expression of mRNA in was normalized against 18s rRNA and fold change was calculated relative to CS samples. Error bars are means±SEM; *P<0.05, **P<0.01, ***P<0.001.
Regulation of cardiovascular structure and function by PAR2 antagonist 52 in diet-induced obese rats was also measured (FIG. 18), including diastolic stiffness constant measurements in CS, HCHF, HCHF+ compound 52-treated rats (FIG. 18A) and echocardiographic characterization of cardiac structure in CS, HCHF (at 8 weeks before treatment), HCHF and HCHF+ compound 52-treated rats FIG. 18B. FIGS. 18C and D show echocardiographic characterization of cardiac function in CS, HCHF (at 8 weeks before treatment), HCHF and HCHF+ compound 52-treated rats. FIGS. 18E-G illustrate vascular organ bath responses for noradrenaline (E), sodium nitroprusside (F) and acetylcholine (G) in CS (●), HCHF (∘) and HCHF+[…] (▾)-treated rats. Representative images (40× magnification) of interstitial collagen deposition in the left ventricle of CS(H), HCHF (I) and HCHF+PAR2 antagonist 52 (J)-treated rats. FIGS. 18 K and L are graphical representations of the area of collagen deposition in perivascular (K) and interstitial (L) region of the left ventricle. *P<0.05 vs CS; **P<0.05 vs HCHF.

[2] = Pharmacokinetics, single oral dose
Description: Male Wistar rats were surgically implanted with a jugular vein catheter. Blood samples (heparinised) were collected from the catheter of an unanaesthetised, unrestrained rat, 5 min prior to PAR2 antagonist 52 administration (10 mg/kg p.o.) and 30 min, 1-6, 8 and 24 h post-administration. Rats not implanted with a catheter were given PAR2 antagonist 52 (10 mg/kg/day p.o.) four days consecutively (n=6). On the fifth day, plasma, cerebrospinal fluid (CSF), paw tissue and intraperitoneal adipose were collected for LCMS analysis.

[3] = test system: λ-carrageenan-induced paw oedema; experiment: λ-carrageenan-induced paw oedema; settings: 10 mg/kg p.o., 1% λ-carrageenan intraplantar
Description: Methods were based on literature (Kelso E B et al., J Pharmacol Exp Ther 2006, 316(3):1017-24; Kawabata A et al., Peptides 2001, 23(6):1181-3). Male Wistar rats (n=4 per group) were given 10 mg/kg PAR2 antagonist 52 (p.o. via gavage in olive oil, 500 μL). Control animals received only olive oil. Thirty minutes later, λ-carrageenan was administered into the right hind paw pad (1% w/v in saline, 100 μL, i.pl, Left paw saline control). Paw thickness and width were measured at 1-6, 8 and 24 h (as above) and swelling expressed in area (mm^2) and plotted as % change from baseline of each individual paw.

[4] = male, Wistar, rat, 10 mg/kg oral gavage, plasma

## CC[C@H](C)[C@@H](NC(=O)[C@H](CC1CCCCC1)NC(=O)c1ccno1)C(=O)N1CCC2(C=Cc3ccccc32)CC1 [Compound 52]
[1]; 10 mg/kg/day oral, weeks 8-16
  body weight gain: prevention
  metabolic indicators after 16 weeks of HCHF feeding: attenuated or reversed
  total fat mass: prevention
  visceral (abdominal) fat deposition: prevention
[1]; HCHF rats
  increased steatosis: prevented
[1]; HCHF-fed rats
  M1-specific proinflammatory genes in adipose tissue: drastic decreased
  M2-specific genes (Mcr2, Mgl1, Ym1, Arg1) in adipose tissue: restored or upregulated
  altered Pparg, Ucp2 and Adipoq genes in retroperitoneal adipose tissue: attenuated these changes
  altered gene expression in skeletal muscle and pancreas: attenuated this altered gene expression
  development of diet-induced cardiac fibrosis (collagen deposition): potent inhibitory effect
  insulin tolerance test: improved responsiveness to insulin; also recorded: comparable insulin sensitivity to untreated CS-fed rats
  oral glucose tolerance test: improved glucose tolerance
[1]; suppressed in HCHF-fed rats
  pancreatic genes Glut2 and Beta2: restored; also recorded: normalized
[1]; treated versus untreated HCHF rats
  liver genes Pparg, Srebf1, Ucp2, Ppargc1a, Cpt and Pnpla2: upregulation
[1]; treatment in vivo
  pancreatic genes Iapp, Atf3, Fas and Id-1 upregulated in HCHF rats: attenuated
[1]; treatment weeks 8-16
  elevated triglycerides and systolic blood pressure: except for elevated triglycerides and systolic blood pressure
  increase in PAR2 expression in whole adipose, adipocyte and stromovascular cells: prevented
  metabolic parameters elevated on HCHF diet (glucose and insulin tolerance, plasma lipids, liver enzymes, cardiac structure and function): attenuated
[2]; 10 mg/kg oral gavage
  presence in plasma after 24 h: No PAR2 antagonist 52 was present
[2]; Wistar, rat, paw tissue homogenate, po, 3 h post administration, 10 mg/kg p.o., LCMS/MS, read-out: concentration in paw tissue homogenates
  concentration at 3 h: 35 nM
[2]; male, Wistar, rat, plasma, po, 10 mg/kg, 10 mg/kg p.o., from AUC 0-6 h, read-out: oral bioavailability F
  bioavailability: 55%
[2]; [4]
  Cmax: 1700 ± 400 nM
  Tmax: 4 ± 0.6 h
  half-life: 1.13 ± 0.13 h
[3]
  λ-carrageenan-induced oedema reduced to: 50%
